Test system: apple peel
Assay: Free amino acid content of apple peel via UPLC-MS/MS after AHAS inhibitor treatment
Format: in vivo, Malus x domestica Borkh.
Set-up: key to free asparagine content compared to control / free aspartate content compared to control / free cysteine content compared to control / free glutamate content compared to control / free glutamine content compared to control / free glycine content compared to control / free histidine content compared to control / free lysine content compared to control / free methionine content compared to control / free phenylalanine content compared to control / free serine content compared to control / free threonine content compared to control / free tryptophan content compared to control / free tyrosine content compared to control / free valine content compared to control / total free amino acid content compared to control / free alanine content compared to control / free arginine content compared to control: —: Dash indicates no significant difference between treatments
Settings: for free alanine content compared to control / free arginine content compared to control / free asparagine content compared to control / free aspartate content compared to control / free cysteine content compared to control / free glutamate content compared to control / free glutamine content compared to control / free glycine content compared to control / free histidine content compared to control / free isoleucine content compared to control / free leucine content compared to control / free lysine content compared to control / free methionine content compared to control / free phenylalanine content compared to control / free serine content compared to control / free threonine content compared to control / free tryptophan content compared to control / free tyrosine content compared to control / free valine content compared to control / total free amino acid content compared to control: 1 mM daily
Protocol: Whole apple fruit, freshly harvested and at an early stage of ripening (‘ripening’), were held at room temperature (22° C.) and rubbed daily with 3 mL of a freshly made 1mM solution of the inhibitor rimsulfuron (N-((4,6-dimethoxypyrimidin-2-yl)aminocarbonyl)-3-(ethylsulfonyl)-2-pyridinesulfonamide, made from DuPont MATRIX® SG, 25% w/w active ingredient; 0.1% Tween 20) or water solution containing 0.1% Tween 20 before preparation with further treatments. Flowering quince fruit were smaller than the apple fruit and had 2 mL of the control and treatment solutions applied daily at 22° C. ‘Gala’, ‘Empire’, and ‘Jonagold’ apple fruit were treated for four, nine, and seven days before further preparation, respectively. Flowering quince fruit were treated for six days before analysis. Headspace volatile emissions were monitored for three or four representative fruits during the incubation/treatment period to determine appropriate times for further treatments. During method testing, 1 mM solutions of the imidazolinone imazamox was also assessed with apple fruit (2-[4,5-dihydro-4-methyl-4-(1-methylethyl)-5-oxo-1H-imidazol-2-yl]-5-(methoxymethyl)-3-pyridinecarboxylic acid, made from RAPTOR®, 12.1% w/w active ingredient; 0.1% Tween 20).
After volatile analysis, apple peel disks, collected peel of flowering quince, and ‘Valery’ pulp section samples were held at −80° C. for further amino acid analysis.
Frozen samples were ground to a powder in liquid nitrogen-chilled mortar and pestles. About 500 mg of tissue was vortexed for 10 sec in 2 mL of room temperature (22° C.) extraction solution (1:1:1 water:acetonitrile:ethanol, v/v/v) spiked with 2 nmoles of U-^13C,^15N labeled amino acids (MilliporeSigma) as internal standards and heated for 15 min in a 65° C. water bath. Extracts were briefly chilled on ice before centrifugation at 4400×g for 15 min at 4° C. The supernatant was filtered by centrifugation (0.2 μm nylon centrifugal filter; Costar, Corning) at 21000×g for 5 min at room temperature. 10 μL of the filtrate was transferred to an autosampler vial and diluted 100-fold with 990 μL of 10.1 mM perfluorohexanoic acid (PFHA) spiked with […] of internal standard. Thus the final concentration of internal standard was ˜2 μM.
An amino acid standard series was prepared from a premade mixture (MilliporeSigma, AAS18) that contained equal molar amounts of cystine and all 20 proteinogenic amino acids save for tryptophan, asparagine, glutamine, and cysteine. An equal molar mixture of tryptophan, asparagine, glutamine, and cysteine was subsequently prepared. To avoid dilution errors or artefacts from differing buffers, these amino acid stocks were aliquoted and desiccated such that a five-part standard series ranging from 250 μM to 25 nM would be produced upon resuscitation with 10 μL of spiked extraction buffer and 990 μL spiked PFHA solution.
Samples and amino acids were held overnight at −20° C. before analysis. Amino acids were analyzed with a Xevo TQ-S Micro UPLC (H-Class)-MS/MS (Waters) at the Michigan State University Mass Spectrometry and Metabolomics Core. Conditions were as follows. HPLC column: Acquirt UPLC HSS T3, 2.1×100 mm, 1.7 μm particle size (Waters), with a 0.2 μm pre-column filter (Waters). Mobile phase: A) 10 mM PFHA in water, B) acetonitrile. LC gradient: linear gradient, slope setting=6, flow rate=0.3 mL·min^−1, step 1) 0 min, 100% A, 0% B, 2) 1 min, 100% A, 0% B, 3) 8 min, 35% A, 65% B, 4) 8.01 min, 10% A, 90% B, 5) 9 min, 10% A, 90% B, 6) 9.01 min, 100% A, 0% B, 7) 13 min, 100% A, 0% B. Column temp: 40° C. Autosampler temp: 10° C. Injection volume: 10 μL. Tune parameters: electrospray ionization, standard ESI probe, capillary voltage=+1.0 kV, source temp=120° C., desolvation temp=350° C., desolvation gas=800 L·hr^−1, cone gas=40 L·hr^−1. MS collection was split into three phases and were adjusted after checking the retention time of several samples; however proline was missed for apple and flowering quince samples. […]

[1] = ripening Empire apple peel, nine days
[2] = ripening Gala apple peel, four days
[3] = ripening Jonagold apple peel, seven days

## CCS(=O)(=O)c1cccnc1S(=O)(=O)NC(=O)Nc1nc(OC)cc(OC)n1 [rimsulfuron, N-((4,6-dimethoxypyrimidin-2-yl)aminocarbonyl)-3-(ethylsulfonyl)-2-pyridinesulfonamide]
[1]
  free alanine content compared to control: —
  free arginine content compared to control: —
  free asparagine content compared to control: —
  free aspartate content compared to control: —
  free cysteine content compared to control: 261.5 ± 32.5%
  free glutamate content compared to control: —
  free glutamine content compared to control: —
  free glycine content compared to control: —
  free histidine content compared to control: —
  free isoleucine content compared to control: 3.3 ± 0.7%
  free leucine content compared to control: 422.8 ± 100.1%
  free lysine content compared to control: —
  free methionine content compared to control: 212.7 ± 26.8%
  free phenylalanine content compared to control: —
  free serine content compared to control: —
  free threonine content compared to control: —
  free tryptophan content compared to control: —
  free tyrosine content compared to control: —
  free valine content compared to control: —
  total free amino acid content compared to control: —
[2]
  free alanine content compared to control: 273.4 ± 27.4%
  free arginine content compared to control: —
  free asparagine content compared to control: —
  free aspartate content compared to control: 231.8 ± 18.0%
  free cysteine content compared to control: —
  free glutamate content compared to control: 146.3 ± 5.6%
  free glutamine content compared to control: 250.7 ± 33.5%
  free glycine content compared to control: —
  free histidine content compared to control: —
  free isoleucine content compared to control: 16.4 ± 6.3%
  free leucine content compared to control: 214.4 ± 42.2%
  free lysine content compared to control: —
  free methionine content compared to control: —
  free phenylalanine content compared to control: —
  free serine content compared to control: 300.1 ± 27.7%
  free threonine content compared to control: 182.3 ± 14.2%
  free tryptophan content compared to control: —
  free tyrosine content compared to control: —
  free valine content compared to control: —
  total free amino acid content compared to control: 191.5 ± 20.4%
Ripening Gala, Empire, Jonagold peels
  valine following treatment: unaffected
[3]
  free alanine content compared to control: —
  free arginine content compared to control: —
  free asparagine content compared to control: —
  free aspartate content compared to control: —
  free cysteine content compared to control: 410.6 ± 49.6%
  free glutamate content compared to control: —
  free glutamine content compared to control: —
  free glycine content compared to control: —
  free histidine content compared to control: —
  free isoleucine content compared to control: 4.1 ± 1.3%
  free leucine content compared to control: 393.2 ± 74.4%
  free lysine content compared to control: —
  free methionine content compared to control: 218.3 ± 31.0%
  free phenylalanine content compared to control: —
  free serine content compared to control: 191.9 ± 32.1%
  free threonine content compared to control: —
  free tryptophan content compared to control: —
  free tyrosine content compared to control: —
  free valine content compared to control: —
  total free amino acid content compared to control: —
Ripening fruit of the three cultivars (Gala, Empire, Jonagold), on average
  reduction of isoleucine in the peels: 92.1%
Three ripening cultivars, on average
  increase of leucine content: 3.4 fold
